Where a name gives a salt, the structure may show the parent alone.
What follows are molecules tested on human cancer cell lines Hs683, U-373MG, HCT-15, LoVo, A549 and MCF-7 (assay: MTT test, effect on overall cell growth (mean of six cell lines, examples 3 to 26)). Conditions: mean of six cell lines Hs683, U-373MG, A549, MCF-7, 72 hours incubation, range of molar concentrations resulting in 50% inhibition of overall tumor cells growth.
Type: cell-based
Protocol: (§1) MTT tests were performed in order to rapidly, i.e. within 5 days, measure the effect of azonafide derivatives of this invention on the overall cell growth. The test measures the number of metabolically active living cells that are able to transform the yellow product 3-(4,5-dimethylthiazol-2-yl)-2,5-diphenyl tetrazolium bromide (herein referred as MTT) into the blue product formazan dye by mitochondrial reduction. The amount of formazan obtained at the end of the experiment, measured by means of a spectrophotometer, is directly proportional to the number of living cells. Optical density determination thus enables a quantitative measurement of the effect of the investigated compounds as compared to the control condition (untreated cells) and/or to other reference compounds.
(§2) Height human cancer cell lines described in table 1 were used in the following MTT tests. These cell lines cover six histological cancer types, being prostate, glioma, pancreas, colon, lung and breast cancers. Cells were allowed to grow in 96-well micro-wells with a flat bottom with an amount of 100 μl of cell suspension per well with 1,000 to 4,000 cells/well depending on the cell type used. Each cell line was seeded in a well known MEM 5% serum culture medium.
(§3) The detailed experimental procedure was as following: after a 24-hour period of incubation at 37° C., the culture medium was replaced by 100 μl of fresh medium in which the compound to be tested was dissolved at the following molar concentrations: 10^−9 M, 5.10^−9 M, 10^−8 M, 5.10^−8 M, 10^−7 M, 5.10^−7 M, 10^−6 M, 5.10^−6 M and 10^−5 M. Each experiment was repeated 6 times.
(§4) After 72 hours of incubation at 37° C. with (experimental conditions) or without (control condition) the compound to be tested, the medium was replaced by 100 μl MTT dissolved in RPMI at a concentration of 1 mg/ml. The micro-wells were subsequently incubated during 3 hours at 37° C. and centrifuged at 400 g during 10 minutes. MTT was removed and formazan crystals formed were dissolved in 100 μl DMSO. The micro-wells were shaken for 5 minutes and read on a spectrophotometer at wavelengths of 570 nm (maximum formazan absorbance) and 630 nm (back-ground noise).
(§5) For each experimental condition, the mean optical density was calculated, as well as the percentage of remaining living cells in comparison with the control.
(§6) IC50 values for compounds of examples 3 to 26 were obtained on cell lines Hs683, U-373MG, HCT-15, LoVo, A549 and MCF-7 described in Table 1. IC50 values for compounds from examples 27 to 45 were obtained on cell lines PC3, U-373MG, BxPC3, LoVo, A549 and MCF-7 described in Table 1.
`CN(C)CCN1C(=O)c2cccc3cc4c(N)cccc4c(c23)C1=O` [Example 4, 8-amino-2-[2-(dimethylamino)ethyl]-1H-dibenzo[de,h]isoquinoline-1,3(2H)-dione, reference compound] showed an IC50 of 1 to 5 µM.
`CN(C)CCN1C(=O)c2cccc3cc4cccc(NC(=O)Oc5ccccc5)c4c(c23)C1=O` [Example 18, phenyl {2-[2-(dimethylamino)ethyl]-1,3-dioxo-2,3-dihydro-1H-dibenzo[de,h]isoquinolin-11-yl}carbamate] was tested, and the IC50 was over 10 µM.
In the case of `CN(C)CCN1C(=O)c2cccc3cc4c(NC(=O)NC(=O)c5ccccc5)cccc4c(c23)C1=O` [Example 16, N-({2-[2-(dimethylamino)ethyl]-1,3-dioxo-2,3-dihydro-1H-dibenzo[de,h]isoquinolin-8-yl}carbamoyl)benzamide hydrochloride], the IC50 is reported as 1 to 5 µM.
Work on `CN(C)CCN1C(=O)c2cccc3cc4cccc(NC(=O)CC(=O)CCc5ccccc5)c4c(c23)C1=O` [Example 22, N-{2-[2-(dimethylamino)ethyl]-1,3-dioxo-2,3-dihydro-1H-dibenzo[de,h]isoquinolin-11-yl}-3-oxo-5-phenylpentanamide] yielded an IC50 of over 10 µM.
For `CCOC(=O)CCC(=O)CC(=O)Nc1cccc2cc3cccc4c3c(c12)C(=O)N(CCN(C)C)C4=O` [Example 23, ethyl 6-({2-[2-(dimethylamino)ethyl]-1,3-dioxo-2,3-dihydro-1H-dibenzo[de,h]isoquinolin-11-yl}amino)-4,6-dioxohexanoate], the IC50 was over 10 µM.
In the case of `CCCCCCCCCC(=O)CC(=O)Nc1cccc2cc3cccc4c3c(c12)C(=O)N(CCN(C)C)C4=O` [Example 20, N-{2-[2-(dimethylamino)ethyl]-1,3-dioxo-2,3-dihydro-1H-dibenzo[de,h]isoquinolin-11-yl}-3-oxododecanamide], the IC50 is reported as over 10 µM.

Each molecule was assayed on human cancer cell lines PC3, U-373MG, BxPC3, LoVo, A549 and MCF-7 (assay: MTT test, effect on overall cell growth (mean of six cell lines, examples 27 to 45)). Conditions: mean of six cell lines PC3, U-373MG, A549, MCF-7, 72 hours incubation, range of molar concentrations resulting in 50% inhibition of overall tumor cells growth.
Type: cell-based
Protocol: as §1, §2, §3, §4, §5, §6
Molecule `CN(C)CCN1C(=O)c2cccc3cc4cccc(NC(=S)Nc5ccc(Br)cc5OC(F)(F)F)c4c(c23)C1=O` [Example 39, 1-{2-[2-(dimethylamino)ethyl]-1,3-dioxo-2,3-dihydro-1H-dibenzo[de,h]isoquinolin-11-yl}-3-[2-trifluoromethoxy4-bromophenyl]thiourea] has an IC50 of over 10 µM.
For `CN(C)CCN1C(=O)c2cccc3cc4cccc(NC(=S)Nc5ccc6nsnc6c5)c4c(c23)C1=O` [Example 43, 1-(2,1,3-Benzothiadiazol-5-yl)-3-{2-[2-(dimethylamino)ethyl]-1,3-dioxo-2,3-dihydro-1H-dibenzo[de,h]isoquinolin-11-yl}thiourea], the IC50 was 1 to 5 µM.
Molecule `CCNC(=S)Nc1cccc2cc3cccc4c3c(c12)C(=O)N(CCN(C)C)C4=O` [Example 35, 1-{2-[2-(dimethylamino)ethyl]-1,3-dioxo-2,3-dihydro-1H-dibenzo[de,h]isoquinolin-11-yl}-3-[ethyl]thiourea] has an IC50 of over 10 µM.
In the case of `CN(C)CCN1C(=O)c2cccc3cc4cccc(NC(=S)Nc5ccc(C(F)(F)F)cc5)c4c(c23)C1=O` [Example 41, 1-{2-[2-(dimethylamino)ethyl]-1,3-dioxo-2,3-dihydro-1H-dibenzo[de,h]isoquinolin-11-yl}-3-[4-trifluoromethylphenyl]thiourea], the IC50 is reported as 1 to 5 µM.
Molecule `C=CCNC(=S)Nc1cccc2cc3cccc4c3c(c12)C(=O)N(CCN(C)C)C4=O` [Example 36, 1-{2-[2-(dimethylamino)ethyl]-1,3-dioxo-2,3-dihydro-1H-dibenzo[de,h]isoquinolin-11-yl}-3-[allyl]thiourea] has an IC50 of over 10 µM.
`COCCNC(=S)Nc1cccc2cc3cccc4c3c(c12)C(=O)N(CCN(C)C)C4=O` [Example 32, 1-{2-[2-(dimethylamino)ethyl]-1,3-dioxo-2,3-dihydro-1H-dibenzo[de,h]isoquinolin-11-yl}-3-[2-methoxyethyl]thiourea] was tested, and the IC50 was 5 to 10 µM.
`CN(C)CCN1C(=O)c2cccc3cc4cccc(NC(=S)Nc5cccnc5)c4c(c23)C1=O` [Example 38, 1-{2-[2-(dimethylamino)ethyl]-1,3-dioxo-2,3-dihydro-1H-dibenzo[de,h]isoquinolin-11-yl}-3-[3-pyridyl]thiourea] was tested, and the IC50 was over 10 µM.
`CC(C)c1ccc(NC(=S)Nc2cccc3cc4cccc5c4c(c23)C(=O)N(CCN(C)C)C5=O)cc1` [Example 33, 1-{2-[2-(dimethylamino)ethyl]-1,3-dioxo-2,3-dihydro-1H-dibenzo[de,h]isoquinolin-11-yl}-3-[4-isopropylphenyl]thiourea] was tested, and the IC50 was over 10 µM.
In the case of `CN(C)CCN1C(=O)c2cccc3cc4cccc(NC(=S)Nc5ccccc5OC(F)(F)F)c4c(c23)C1=O` [Example 45, 1-{2-[2-(dimethylamino)ethyl]-1,3-dioxo-2,3-dihydro-1H-dibenzo[de,h]isoquinolin-11-yl}-3-[2-(trifluoromethoxy)phenyl]thiourea], the IC50 is reported as over 10 µM.
For `CN(C)CCN1C(=O)c2cccc3cc4cccc(NC(=S)NCc5ccco5)c4c(c23)C1=O` [Example 40, 1-{2-[2-(dimethylamino)ethyl]-1,3-dioxo-2,3-dihydro-1H-dibenzo[de,h]isoquinolin-11-yl}-3-[2-furylmethyl]thiourea], the IC50 was 1 to 5 µM.
`CN(C)CCN1C(=O)c2cccc3cc4cccc(NC(=O)OCCCCCl)c4c(c23)C1=O` [Example 28, 4-chlorobutyl {2-[2-(dimethylamino)ethyl]-1,3-dioxo-2,3-dihydro-1H-dibenzo[de,h]isoquinolin-11-yl}carbamate] was tested, and the IC50 was over 10 µM.
`CN(C)CCN1C(=O)c2cccc3cc4cccc(NC(=S)Nc5ccc(Br)cc5)c4c(c23)C1=O` [Example 30, 1-{2-[2-(dimethylamino)ethyl]-1,3-dioxo-2,3-dihydro-1H-dibenzo[de,h]isoquinolin-11-yl}-3-[4-bromophenyl]thiourea] was tested, and the IC50 was over 10 µM.
For `COc1ccccc1NC(=S)Nc1cccc2cc3cccc4c3c(c12)C(=O)N(CCN(C)C)C4=O` [Example 37, 1-{2-[2-(dimethylamino)ethyl]-1,3-dioxo-2,3-dihydro-1H-dibenzo[de,h]isoquinolin-11-yl}-3-[2-methoxyphenyl]thiourea], the IC50 was over 10 µM.
For `COc1ccc(NC(=S)Nc2cccc3cc4cccc5c4c(c23)C(=O)N(CCN(C)C)C5=O)cc1` [Example 34, 1-{2-[2-(dimethylamino)ethyl]-1,3-dioxo-2,3-dihydro-1H-dibenzo[de,h]isoquinolin-11-yl}-3-[4-methoxyphenyl]thiourea], the IC50 was over 10 µM.

Reference: patent publication US7741337B2, “Azonafide derivatives, methods for their production and pharmaceutical compositions therefrom” (Unibioscreen S.A., priority 2005, dated 2010)
